# In patent US20070009544A1, “Anti-allergic complex molecules” (priority 1999, published 2007):
# Numbered stars: 1 amine (or outer) side, 2 acyl side, 3 side chain; on linkers, the order of the positions; unused ones are H or OH. Square brackets hold non-standard residues; d marks the D form. Ends that are not written are not given here. Peptide text beside a SMILES is read from it. Suc = O=C(CCC(=O)[*:2])[*:1]; Sar = CNCC(=O)O
# What was measured:
# [1] = tested on: purified rat peritoneal mast cells; experiment: Histamine secretion from intact mast cells incubated with peptide alone (secretagogue side effect); conditions: for Secretagogue (histamine secretion following incubation of mast cell with different concentrations of each peptide): Table 9, no allergen; for Secretagogue (histamine secretion following incubation of mast cell with different concentrations of each peptide) / basal level of histamine secretion compared to control cells: peptide alone; for histamine secretion from mast cells on incubation with increasing concentrations of peptide alone: no additional allergen; for basal level of histamine secretion compared to control cells: increasing concentrations
# [2] = tested on: purified rat peritoneal mast cells; format: cell-based; conditions: for maximal inhibition of compound 48/80 induced histamine secretion: 600 μg/ml peptide, compound 48/80 concentration not given; for Inhibitor (extent of inhibition of histamine secretion from mast cells): Table 9, incubation with different concentrations of each peptide, then induction of the allergic reaction
# Procedure: 37° C. […] Each data point represents the average of duplicate measurements. The spontaneously released histamine was subtracted.
# First, the effect of compound 48/80 on exocytosis from intact mast cells was determined. […] Histamine release was determined and is presented as the net secretion that is % of the total cellular histamine following subtraction of the spontaneously released histamine. Half-maximal release was obtained at 0.1 μg/ml while maximal release was obtained at 1-10 μg/ml. Accordingly, in order to analyze the potential of each peptide to block histamine secretion, histamine secretion was induced with 5 μg/ml compound 48/80, a concentration that induces a maximal histamine release, while the cells were incubated in the presence of increasing concentrations of each peptide.
# In order to investigate the ability of these peptides to block allergen-induced exocytosis, the peptides were examined for their ability to block compound 48/80 induced histamine secretion from intact mast cells in vitro. Mast cells were incubated with different concentrations of each peptide, followed by induction of histamine secretion by compound 48/80.
# [3] = tested on: abdominal skin of C.R rats; experiment: Rat skin test: intradermal injection of peptide, then intradermal compound 48/80 or vehicle, wheal area; format: in vivo; conditions: for block of compound 48/80 induced allergic reaction in vivo, rat skin: intradermal peptide; for Mean Wheal Area ± STD, Vehicle: vehicle instead of compound 48/80
# Procedure: The hair of the abdominal area of C.R rats was carefully removed with an electric clipper and a depilatory cream. In each animal the abdominal area was divided to six equal zones that were marked by pen. Each zone was either subjected to peptide treatment or served as a control. In the first set of experiments, the peptide was topically applied as follows: 36 μl of peptide solution at the indicated concentration (dissolved in 72% DMSO in saline) was applied on desired abdominal area. In the second set of experiments, the peptide was injected intradermally as follows: 20 μl of peptide solution at different concentrations (dissolved in 10% DMSO in saline) was injected intradermally to an indicated abdominal area using a 27-gauge sterile needle.
# Skin tests were performed 0.5, 1 or 2 hours following application of the peptide. Skin tests were performed by injecting intradermally 20 μl of the allergen (0.1 mg/ml compound 48/80 dissolved in saline) or saline alone, into the center of each marked area on the abdominal skin using a 27-gauge sterile needle. The allergic response was monitored by outlining with a marker the wheals which developed in response to allergen or saline treatment.
# To quantitate the skin test results, the marker signs were transferred onto paper with scotch tape. The areas of the wheals were outlined and calculated by a computerized planimeter (Hewlett-Packard), as previously described (Sussman et al., 1982).
# Tables 10-16 presents the mean areas of the wheals, which developed in response to intradermal injection of each of the tested peptides, followed by either compound 48/80 or DDW injection applied after 0.5 or 1 hour. Two doses were tested for each peptide-20 and 200 μg (injection of 20 μl from a stock solution of 1 mg/ml or 10 mg/m respectively).
# Skin tests on rats using compound 48/80 as the allergen assessed the ability of the peptides of the present invention to block allergic cutaneous reactions. The abdominal skin of the rats was subjected to peptide (indicated concentrations are listed in Tables 17A-17B below) or vehicle treatment (intradermal injection); the allergic response was induced by intradermal injection of compound 48/80 at various times; and the allergic response was quantified by calculating the area of the resultant allergic wheals.
# [4] = intradermal peptide 1 mg/ml, 0.5 hour before
# [5] = intradermal peptide 1 mg/ml, 0.5 hour before allergic induction
# [6] = intradermal peptide 10 mg/ml, 0.5 hour before
# [7] = intradermal peptide 10 mg/ml, 0.5 hour before allergic induction
# [8] = intradermal peptide 0.5 hour before allergic induction
# [9] = intradermal peptide 1 mg/ml, 1 hour before
# [10] = intradermal peptide 10 mg/ml, 1 hour before
Compound,Secretagogue (histamine secretion following incubation of mast cell with different concentrations of each peptide) [1],histamine secretion from mast cells on incubation with increasing concentrations of peptide alone [1],basal level of histamine secretion compared to control cells [1],"IC50, compound 48/80 induced histamine secretion [2]",maximal inhibition of compound 48/80 induced histamine secretion [2],Inhibitor (extent of inhibition of histamine secretion from mast cells) [2],"block of compound 48/80 induced allergic reaction in vivo, rat skin [3]","reduction of compound 48/80 induced allergic reaction [3, 8]","Mean Wheal Area ± STD, Vehicle [3, 4]","Mean Wheal Area ± STD, Vehicle [3, 9]","Mean Wheal Area ± STD, Vehicle [3, 6]","Mean Wheal Area ± STD, Vehicle [3, 10]","Mean Wheal Area ± STD, Compound 48/80 [3, 5]","Mean Wheal Area ± STD, Compound 48/80 [3, 7]",other results
CC(C)C[C@H](NC(=O)CNC(=O)[C@H](CS)NC(=O)[C@H](CCC(=O)O)NC(=O)[C@H](CCCCN)NC(=O)[C@H](CC(C)C)NC(=O)[C@H](CC(N)=O)NC(=O)[C@H](CCC(N)=O)NC(=O)[C@H](CCCCN)NC(=O)[C@@H]1CCCN1C(=O)[C@H](C)NC(=O)[C@H](CC(C)C)NC(=O)[C@H](CC(C)C)NC(=O)[C@H](C)NC(=O)[C@H](CC(C)C)NC(=O)[C@H](CC(C)C)NC(=O)[C@@H](NC(=O)[C@H](C)NC(=O)[C@@H]1CCCN1C(=O)[C@H](CC(C)C)NC(=O)[C@H](CC(C)C)NC(=O)[C@H](C)NC(=O)[C@@H](NC(=O)[C@H](C)NC(=O)[C@H](C)NC(=O)CCC(=O)O)C(C)C)C(C)C)C(=O)N[C@@H](Cc1ccc(O)cc1)C(=O)O [WALL015] (Suc-AAVALLPAVLLALLAPKQNLKECGLY-OH; C-terminus assumed),−,did not result in histamine secretion,minor inhibition of the basal level of histamine secretion,300 µg/mL,75%,++ (++ Moderate inhibitor (50%-70% inhibition)),effectively block the allergic response in vivo,reduced the allergic reaction,,,,,,,"Wheal Area, Vehicle (representative experiment) [3, 4]: 110.4 mm^2; Wheal Area, Compound 48/80 (representative experiment) [3, 5]: 100.1 mm^2; Wheal Area, Vehicle (representative experiment) [3, 6]: 89.7 mm^2; Wheal Area, Compound 48/80 (representative experiment) [3, 7]: 75.3 mm^2"
AAVALLPAVLLALLAPKNNLKEVGLY [WALL007],−,did not result in histamine secretion,,230 µg/mL,,,,,76.5 ± 14.1 (n = 12) mm^2,62.4 ± 11.1 (n = 15) mm^2,74.5 ± 26.4 (n = 12) mm^2,65.9 ± 10.0 (n = 11) mm^2,,,
CC(C)C[C@H](NC(=O)CNC(=O)[C@H](CS)NC(=O)[C@H](CCC(=O)O)NC(=O)[C@H](CCCCN)NC(=O)[C@H](CC(C)C)NC(=O)[C@H](CC(N)=O)NC(=O)[C@H](CCC(=O)O)NC(=O)[C@H](CCCCN)NC(=O)[C@@H]1CCCN1C(=O)[C@H](C)NC(=O)[C@H](CC(C)C)NC(=O)[C@H](CC(C)C)NC(=O)[C@H](C)NC(=O)[C@H](CC(C)C)NC(=O)[C@H](CC(C)C)NC(=O)[C@@H](NC(=O)[C@H](C)NC(=O)[C@@H]1CCCN1C(=O)[C@H](CC(C)C)NC(=O)[C@H](CC(C)C)NC(=O)[C@H](C)NC(=O)[C@@H](NC(=O)[C@H](C)NC(=O)[C@H](C)NC(=O)CCC(=O)O)C(C)C)C(C)C)C(=O)N[C@@H](Cc1ccc(O)cc1)C(=O)O [WALL012] (Suc-AAVALLPAVLLALLAPKENLKECGLY-OH; C-terminus assumed),−,did not result in histamine secretion,minor inhibition of the basal level of histamine secretion,320 µg/mL,97.5%,+++ (+++ Potent inhibitor (≧80% inhibition)),effectively block the allergic response in vivo,significant inhibition,71.6 ± 13.8 (n = 5) mm^2,,66.7 ± 10.1 (n = 5) mm^2,,104.8 ± 12.6 (n = 5) mm^2,75.1 ± 8.5 (n = 5)** mm^2,
CC(C)C[C@H](NC(=O)CNC(=O)[C@@H](NC(=O)[C@H](CCC(=O)O)NC(=O)[C@H](CCCCN)NC(=O)[C@H](CC(C)C)NC(=O)[C@H](CC(N)=O)NC(=O)[C@H](CC(N)=O)NC(=O)[C@H](CCCCN)NC(=O)[C@@H]1CCCN1C(=O)[C@H](C)NC(=O)[C@H](CC(C)C)NC(=O)[C@H](CC(C)C)NC(=O)[C@H](C)NC(=O)[C@H](CC(C)C)NC(=O)[C@H](CC(C)C)NC(=O)[C@@H](NC(=O)[C@H](C)NC(=O)[C@@H]1CCCN1C(=O)[C@H](CC(C)C)NC(=O)[C@H](CC(C)C)NC(=O)[C@H](C)NC(=O)[C@@H](NC(=O)[C@H](C)NC(=O)[C@H](C)NC(=O)CCC(=O)O)C(C)C)C(C)C)C(C)C)C(=O)N[C@@H](Cc1ccc(O)cc1)C(=O)O [WALL016] (Suc-AAVALLPAVLLALLAPKNNLKEVGLY-OH; C-terminus assumed),−,did not result in histamine secretion,inhibition of the basal histamine secretion,295 µg/mL,79.6%,++ (++ Moderate inhibitor (50%-70% inhibition)),effectively block the allergic response in vivo,,66.4 ± 12.5 (n = 5) mm^2,62.8 ± 14.6 (n = 6) mm^2,72.6 ± 16.2 (n = 5) mm^2,69.3 ± 17.0 (n = 6) mm^2,104.2 ± 21.6 (n = 5) mm^2,81.2 ± 7.9 (n = 5) mm^2,"Mean Wheal Area ± STD, Compound 48/80 ([3]; intradermal peptide 1 mg/ml, 1 hour before allergic induction): 96.3 ± 15.6 (n = 6) mm^2; Mean Wheal Area ± STD, Compound 48/80 ([3]; intradermal peptide 10 mg/ml, 1 hour before allergic induction): 82.1 ± 27.2 (n = 6) mm^2; reduction of compound 48/80 induced allergic reaction ([3]; intradermal peptide 0.5 or 1 hour before allergic induction): significant inhibition"
CC(C)C[C@H](NC(=O)CNC(=O)[C@H](CS)NC(=O)[C@H](CCC(=O)O)NC(=O)[C@H](CCCCN)NC(=O)[C@H](CC(C)C)NC(=O)[C@H](CC(N)=O)NC(=O)[C@H](CC(N)=O)NC(=O)[C@H](CCCCN)NC(=O)CN(C)C(=O)[C@H](C)NC(=O)[C@H](CC(C)C)NC(=O)[C@H](CC(C)C)NC(=O)[C@H](C)NC(=O)[C@H](CC(C)C)NC(=O)[C@H](CC(C)C)NC(=O)[C@@H](NC(=O)[C@H](C)NC(=O)[C@@H]1CCCN1C(=O)[C@H](CC(C)C)NC(=O)[C@H](CC(C)C)NC(=O)[C@H](C)NC(=O)[C@@H](NC(=O)[C@H](C)NC(=O)[C@H](C)NC(=O)CCC(=O)O)C(C)C)C(C)C)C(=O)N[C@@H](Cc1ccc(O)cc1)C(=O)O [WALL008] (Suc-AAVALLPAVLLALLA[Sar]KNNLKECGLY-OH; C-terminus assumed),−,did not result in histamine secretion,inhibition of the basal level of histamine secretion,220 µg/mL,98.7%,+++ (+++ Potent inhibitor (≧80% inhibition)),effectively block the allergic response in vivo,significant inhibition,79.9 ± 22.3 (n = 4) mm^2,,72.8 ± 13.6 (n = 4) mm^2,,104.1 ± 18.5 (n = 4) mm^2,73.7 ± 12.2 (n = 4) mm^2,
